According to paper PMC12305873, “Chlorinated biscoumarins inhibit chikungunya virus replication in cell-based and animal models” (Emerging Microbes & Infections, 2025):

Experiments:
[1] = test system: CHIKV; assay: In vivo anti-CHIKV efficacy, CHIKV-induced arthritis mouse model; conditions: for PMN infiltration in footpad (H&E), day 1 / PMN infiltration in footpad (H&E), days 2 and 3: compounds single oral 250 mg/kg, ribavirin 50 mg/kg BID IP
[2] = test system: CHIKV; assay: CHIKV plaque assay in HEK 293 cells; conditions: Chikungunya virus, HEK293, read-out: EC50, CHIKV inhibition
[3] = Pharmacokinetic study in mice
[4] = test system: CHIKV replicon; assay: CHIKV replicon inhibition assay (Renilla luciferase) in BHK-21 cells; conditions: Chikungunya virus, BHK-21, 24 h, read-out: EC50, CHIKV replicon inhibition (printed IC50 in Figure 2g,h and b75)
[5] = test system: CHIKV; assay: Cell-based anti-attachment assay in Vero cells; conditions: 10 µM
[6] = test system: Sprague Dawley rats; assay: ALT and Cr levels in rat plasma samples of the PK study; conditions: single oral 250 mg/kg, plasma at 24, 48, 72 h
[7] = biological target: CHIKV nsP1 (Chikungunya virus, UniProt Q8JUX6); assay: MTase-Glo methyltransferase assay; conditions: At 50 µM (method: 100 µM), purified CHIKV nsP1
CHIKV nsP1, sequence (Q8JUX6 1-535): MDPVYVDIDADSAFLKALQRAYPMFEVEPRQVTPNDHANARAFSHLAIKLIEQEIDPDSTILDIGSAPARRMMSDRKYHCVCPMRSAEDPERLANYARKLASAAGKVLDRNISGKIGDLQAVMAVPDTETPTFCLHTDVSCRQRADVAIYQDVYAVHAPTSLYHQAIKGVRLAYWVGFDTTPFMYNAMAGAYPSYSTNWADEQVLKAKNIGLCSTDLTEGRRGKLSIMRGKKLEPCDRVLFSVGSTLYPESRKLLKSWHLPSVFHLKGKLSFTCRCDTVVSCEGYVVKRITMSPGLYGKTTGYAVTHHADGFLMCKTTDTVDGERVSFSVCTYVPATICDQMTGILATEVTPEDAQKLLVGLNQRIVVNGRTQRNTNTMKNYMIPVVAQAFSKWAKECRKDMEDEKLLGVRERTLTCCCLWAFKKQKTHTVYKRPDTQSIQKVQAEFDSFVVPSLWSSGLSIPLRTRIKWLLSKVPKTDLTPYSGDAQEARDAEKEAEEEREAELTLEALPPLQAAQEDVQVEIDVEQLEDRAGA

[8] = test system: CHIKV; assay: CHIKV plaque assay in Vero cells; conditions: Chikungunya virus, read-out: EC50, CHIKV inhibition
[9] = Pharmacokinetic study in rats; conditions: rat
[10] = Cytotoxicity by MTS assay in HEK 293 cells; conditions: human
[11] = Cytotoxicity assay alongside the replicon assay; conditions: hamster
[12] = test system: CHIKV; assay: Time-of-addition and time-of-removal assay in Vero cells; conditions: 10 µM, MOI 1
[13] = test system: C57BL/6 mice; assay: Single-dose acute oral toxicity in mice
[14] = test system: dengue virus NS5 methyltransferase (MTase); design: method as in Loeanurit et al., under review; conditions: targeting the SAM binding site; ref Loeanurit et al., under review; cited from earlier work
[15] = test system: C57BL/6 mice; assay: Multiple-dose toxicity in mice; conditions: compound 3 250 mg/kg oral BID 3 days; ribavirin 50 mg/kg BID I.P.
[16] = C57BL/6, mouse, in vivo, po, 250 mg/kg
[17] = mice, oral 250 mg/kg, mean ± SD
[18] = Sprague Dawley, in vivo, po, 250 mg/kg
[19] = oral 250 mg/kg, mean ± SD, 250 mg/kg
[20] = single oral dose 250 or 500 mg/kg

## O=c1oc2ccccc2c(O)c1C(c1ccc(Cl)cc1)c1c(O)c2ccccc2oc1=O [compound 4, 3,3′-((4-chlorophenyl)methylene)bis(4-hydroxy-2H-chromen-2-one)]
[1]
  PMN infiltration in footpad (H&E), day 1: reduced PMN infiltration on day 1
  PMN infiltration in footpad (H&E), days 2 and 3: PMN infiltration persisting at moderate levels
[1]; single oral 250 mg/kg
  CHIKV titres in footpad tissues, plaque assay, day 2 post-infection: significantly reduced CHIKV titres in footpad tissues
  Systemic viremia (plasma CHIKV titres, plaque assay): no marked reduction in systemic viremia
[1]; single oral 250 mg/kg at 24 h after infection, transient, not significantly different from vehicle
  Foot swelling and activity vs vehicle group: moderate improvement in foot swelling and activity
[2]
  EC50: 4.65 ± 0.56 µM
[3]; [16]
  AUC: 2750 µg·h/mL
  AUC(0-inf): 2750 ± 927 µg·h/mL
  AUC(0-t): 2750 ± 927 µg·h/mL
  CL/F: 1.67 mL/min/kg
  MRT inf: 10.1 ± 0.366 h
  MRT last: 10.1 ± 0.356 h
  Tmax: 6 h
[3]; C57BL/6, mouse, in vivo, po, 250 mg/kg, Cmax, mice, oral 250 mg/kg, mean ± SD
  Cmax: 197 ± 77 µg/mL
[3]; C57BL/6, mouse, in vivo, po, 250 mg/kg, HL (half-life), mice, oral 250 mg/kg, mean ± SD
  half-life: 3.42 h
[3]; C57BL/6, mouse, in vivo, po, 250 mg/kg, Peak plasma concentration (Cmax), mice, oral 250 mg/kg
  Cmax: 197 µg/mL
[3]; mice, oral 250 mg/kg
  Time within which plasma concentration fell below EC90 and EC50: 24 to 48 h
[3]; [17]
  AUC_% Extrap_obs: 0.018 ± 0.014%
  Vz_F_obs: 0.494 ± 0.200 L/kg
[3]; mice, oral 250 mg/kg, mean ± SD, 250 mg/kg
  HL (half-life): 3.422 ± 0.419 h
[4]
  EC50: 5.04 ± 0.23 µM
[5]; Vero, MOI 0.1, 24 hpi
  CHIKV inhibition, post-incubation or throughout: robust antiviral activity was observed
  CHIKV inhibition, pre-treatment, pre-incubation or co-incubation: Neither compound exhibited significant inhibition
[5]; cells treated 1 h before virus
  Effect of compound pre-treatment on viral replication: enhanced the viral replication
[6]
  ALT and Cr levels: within normal limits
[7]
  nsP1 methyltransferase enzymatic activity vs DMSO control: significantly inhibited enzymatic activity
[8]
  EC50: 2.9 ± 0.25 µM
[9]; [18]
  AUC: 4180 µg·h/mL
  AUC(0-inf): 4440 ± 1730 µg·h/mL
  AUC(0-t): 4180 ± 1640 µg·h/mL
  CL/F: 1.08 mL/min/kg
  MRT inf: 26.77 ± 0.127 h
  MRT last: 22.2 ± 0.801 h
[9]; Sprague Dawley, in vivo, po, 250 mg/kg, Cmax, oral 250 mg/kg, mean ± SD
  Cmax: 133 ± 40.8 µg/mL
[9]; Sprague Dawley, in vivo, po, 250 mg/kg, HL (half-life), oral 250 mg/kg, mean ± SD
  half-life: 16.6 h
[9]; Sprague Dawley, in vivo, po, 250 mg/kg, Peak plasma concentration (Cmax), rats, oral 250 mg/kg
  Cmax: 133 µg/mL
[9]; Sprague Dawley, in vivo, po, 250 mg/kg, Tmax, oral 250 mg/kg, mean ± SD
  Tmax: 10.7 h
[9]; oral 250 mg/kg, mean ± SD
  AUC_% Extrap_obs: 6.119 ± 0.999%
  Vz_F_obs: 1.596 ± 0.946 L/kg
[9]; [19]
  HL (half-life): 16.649 ± 1.601 h
  Tmax: 10.667 ± 2.309 h
[10]
  CC50 at 2 days: 44.4 ± 1.48 µM
[11]
  CC50: 79.87 ± 0.4 µM
[12]
  Time-of-addition time-points significantly different from DMSO control: 1–6 hpi
  Viral titres in time-of-addition (TOA) assay: significantly reduced viral titres when added up to 9 hpi
[13]; [20]
  Activity scores: no significant difference in activity scores
  Kidney histology: remained within normal limits
[13]; single oral dose 250 or 500 mg/kg, days 1, 3, 7
  Liver (ALT) and kidney (creatinine) biomarkers: remained within normal limits
[13]; single oral dose 250 or 500 mg/kg, mice
  Survival and clinical signs over 7 days: All animals survived
[13]; single oral dose, day 1, also seen in vehicle-treated animals
  Liver histology: Mild, transient hepatocellular vacuolization
[13]; up to 500 mg/kg, mice
  Tolerability of a single oral dose: well tolerated
[14]
  Inhibition of dengue virus NS5 methyltransferase: inhibitors of the dengue virus NS5 methyltransferase (MTase)

## NC(=O)c1ncn([C@@H]2O[C@H](CO)[C@@H](O)[C@H]2O)n1 [ribavirin, Ribavirin, reference compound]
[1]
  PMN infiltration in footpad (H&E), day 1: reduced PMN infiltration on day 1
  PMN infiltration in footpad (H&E), days 2 and 3: PMN infiltration persisting at moderate levels
[15]
  Activity scores / behaviour: maintained normal behaviour and activity
  Creatinine: remained within normal limits
  Histopathology of liver tissues: No pathological abnormalities were observed
  Histopathology of renal tissues: No pathological abnormalities were observed
